# Measurements published in patent EP4744665A1, “COMBINATION OF POLQ INHIBITOR COMPOUND AND ANTI-CANCER THERAPEUTIC AGENT OR RADIOTHERAPY” (Simcere Zaiming Pharmaceutical Co., Ltd., priority 2023, dated 2025).
# Key:
# [1] = test system: KURAMOCHI; experiment: Combined use with combination drug, matrix study, Bliss Independence model (Cell Titer Glo, 7 days); assay type: cell-based, human
# Method: (§1) DLD-1 colorectal adenocarcinoma cells, DLD-1 BRCA2 (-/-) colorectal adenocarcinoma cells, SHP-77 human small cell lung cancer cells, NCI-H82 human small cell lung cancer cells, LNCAP prostate cancer cells, KURAMOCHI human ovarian cancer cells, A2780 human ovarian cancer cells, and NCI-H23 non-small cell lung cancer cells were cultured in a 1640 medium containing 10% fetal bovine serum. SKOV3 human ovarian cancer cells were cultured in a McCoy's 5A (modified) medium containing 10% fetal bovine serum. OVCAR3 ovarian cancer cells were cultured in a 1640 medium containing 20% fetal bovine serum and 10 µg/mL bovine insulin. MDA-MB-436 breast cancer cells (natural BRCA1 mutation) and A549 non-small cell lung cancer cells were cultured in a DMEM medium containing 10% fetal bovine serum. Capan-1 human pancreatic cancer cells (natural BRCA2 mutation) were cultured in an IMDM medium containing 20% fetal bovine serum. The cells were all cultured at 37 °C with 5% CO2. Cells at the logarithmic growth phase were available for the experiment.
# (§2) 100 µL of the cell medium was added to rows A and H and columns 1 and 12 of a 96-well cell culture plate. Cultured cells were resuspended (adherent cells were digested with trypsin) and counted to give information on cell density and viability. The dilution ratio of the resuspended cells required for inoculating a fixed number of cells into 80 µL of the medium in each culture well was calculated based on the cell density information. After the resuspended cells were diluted with the corresponding medium, 80 µL of the diluted cells were transferred to columns 2-11 of rows B-G of a 96-well cell culture plate using an Eppendorf multi-channel pipette (60 wells in total for each plate). The cell culture plate was incubated overnight in an incubator at 37 °C with 5% CO2.
# (§3) The test compound and the combination compound were dissolved in DMSO to give a 10 mM solution for later use. In the experiment, the compound was further diluted to the corresponding concentration according to the concentration designed in the experiment, and based on this concentration, serial gradient dilution was performed. Matrix study was performed at 8 or 7 dose concentrations of the test compound (the lowest dose concentration was 0, and other specific concentration values were shown in FIG. 1) and 7 or 8 dose concentrations of the combination compound (the lowest dose concentration was 0, and other specific concentration values were shown in FIG. 1). 10 µL of each of the diluted combination compound and test compound was added to the corresponding cell plate well, such that the final concentration of DMSO was 0.25%. The test compound and the cells were incubated in an incubator at 37 °C with 5% CO2 for another 7 days, Cell Titer Glo was added at 50 µL/well, and the luminescence value of each well was read using an Envision microplate reader.
# (§4) The luminescence value of the well containing only the cell medium was taken as the background (RLUbackground, corresponding cell survival rate to be 0%), the cell well containing only 0.25% DMSO without the compound was taken as the maximum signal (RLUDMSO, corresponding cell survival rate to be 100%), and the luminescence values of the remaining wells containing cells and compounds at different concentrations were taken as RLUsample. The survival rate of each cell well was calculated as follows: Survival rate (%) = (RLUsample−RLUbackground)/(RLUDMSO−RLUbackground) × 100% [formula]
# (§5) The interaction between drugs (synergistic, independent, or antagonistic) was statistically analyzed by the Bliss Independence model using Combenefit software (Bliss, C.I., Bacteriol. Rev., 1956, 20, 243-258). The model assumes that each drug acts independently. The theoretical expected action curve of the combination was calculated from the following equation: Bliss effect = effect A + effect B−effect A × effect B [formula] wherein effect A and effect B are the effects of drugs A and B alone at specific concentrations. […]
# [2] = test system: SKOV3; experiment: as above; assay type: cell-based, human
# Method: as §1, §2, §3, §4, §5
# [3] = test system: NCI-H82; experiment: as above; assay type: cell-based, human; details: combination with Etoposide (Topoisomerase II inhibitor)
# Method: as §1, §2, §3, §4, §5
# [4] = test system: Capan-1; experiment: as above; assay type: cell-based, human
# Method: as §1, §2, §3, §4, §5
# [5] = test system: A2780; experiment: as above; assay type: cell-based, human
# Method: as §1, §2, §3, §4, §5
# [6] = test system: human colorectal adenocarcinoma DLD1 BRCA2-/- cells; experiment: Efficacy of combined use with olaparib in DLD1 BRCA2-/- xenograft tumor model; assay type: in vivo, NU/NU nude mice; details: 10 mg/kg QD intragastric in combination with 50 mg/kg olaparib QD
# Description: The anti-tumor activity of the sodium salt of compound I used in combination with olaparib (MCE, 136925) was studied using a DLD1 BRCA2-/- subcutaneous tumor model. 32 female NU/NU nude mice (6-8 weeks old, Beijing Vital River Laboratory Animal Technology Co., Ltd.) were subcutaneously inoculated with 1 × 10^7 human colorectal adenocarcinoma DLD1 BRCA2-/- cells (Horizon- HD105-007). When the tumors grew to 80-100 mm^3, the mice were randomly divided into four groups with eight mice per group: a first group treated with vehicle control (QD) by intragastric administration, a second group treated with a 10 mg/kg solution of the sodium salt of compound I (QD) by intragastric administration, a third group treated with a 50 mg/kg olaparib solution (QD) by intragastric administration, and a fourth group treated with a 10 mg/kg solution of the sodium salt of compound I (QD) by intragastric administration and a 50 mg/kg olaparib solution (QD) by intragastric administration. The vehicle of olaparib was a solution containing 10% DMSO, 50% 2-hydroxypropyl-β-cyclodextrin (Aladdin-F2223139, 60% aqueous solution), and 40% water, the vehicle of the sodium salt of compound I was 10% (w/v) Vitamin E TPGS (Hanhong Chemical-BH-GN0100619-22 1101) aqueous solution, and the vehicle of the vehicle control group was a mixture of the vehicle of olaparib and the vehicle of the sodium salt of compound I (mixed at a volume ratio of 1:1). Mice had free access to food and water throughout the experiment.
# Tumor diameters were measured twice weekly using a vernier caliper. The tumor volume (V) was calculated using the following formula: V = 0.5a × b^2, wherein a and b represent the long diameter and short diameter of the tumor, respectively.
# Mouse body weight was measured twice weekly.
# Two way ANOVA was used to compare the differences in tumor growth trend among groups, and a significant difference was considered when p < 0.05.
# [7] = combination with Doxorubicin hydrochloride (Topoisomerase II inhibitor)
# [8] = combination with Paclitaxel (Tubulin inhibitor)
smiles,measurement,setting,value
"COc1ccc(Cl)cc1-c1cc(C)ncc1C(=O)Nc1nc2ncc(-c3ccc(C#N)cc3)nc2s1.[Na] [Sodium salt of compound I, Sodium Salt of 4-(5-Chloro-2-methoxyphenyl)-N-[6-(4-cyanophenyl)thiazolo[4,5-b]pyrazin-2-yl]-6-methylnicotinamide]",Combined effect,[1]; [7],Synergistic
same,Combined effect,[1]; [8],Synergistic
same,Combined effect,[2]; [7],Synergistic
same,Combined effect,[2]; [8],Synergistic
same,Combined effect,[3],Synergistic
same,Combined effect,[4]; combination with Niraparib (PARP inhibitor),Synergistic
same,Combined effect,[4]; combination with Olaparib (PARP inhibitor),Synergistic
same,Combined effect,[4]; combination with RP3500 (ATR inhibitor),Synergistic
same,Combined effect,[4]; combination with Talazoparib (PARP inhibitor),Synergistic
same,Combined effect,[5]; [7],Synergistic
same,Combined effect,[5]; combination with Etoposide (Topoisomerase II inhibitor),Synergistic
same,Combined effect,[5]; [8],Synergistic
same,anti-tumor effect of combination with olaparib,[6],strong synergistic anti-tumor effect
same,tumor volume,[6]; versus either single drug group,significantly lower
same,safety,"[6]; condition of mice, body weight",good safety
